# Data: patent USRE43029E1, “Process for preparing a creatine heterocyclic acid salt and method of use” (Bio-Engineered Supplements & Nutrition, Inc., priority 2003, dated 2011)
# Legend:
# [1] = TriCreatine Orotate method of use, 4 weeks post-workout oral supplementation; type: in vivo, human; conditions: weight trained person, 5 grams orally post workout, end of 4 week period
# Text: In this example a experienced weight trained person orally consumes 5 grams of tricreatine orotate post workout for 4 weeks with beverage. Glucose or any insulin potentiating compound may added for even greater results. In this instance the tricreatine orotate is incorporated into free powder mixture of flavoring agents and D-glucose, which is then combined with water. Once in the plasma tricreatine orotate then exerts a synergistic lean tissue promoting effect due to the anabolic actions of creatine and orotic acid. The creatine enhances phophocreatine resynthesis and attracts water to intercellular component of the muscle cell, which in turn activates protein synthesis while the orotic acid promotes uridine phosphates and glycogen synthesis. The previously mentioned physiological functions lead to increases in lean body mass, strength, endurance, recovery and loss of fat tissue. At the end of the 4 week period the individual reported a 6 pound weight gain, a 20 pound increase in […] 1 repetition maximum bench press, and a 5 repetition increase in […] initial 70 percent maximum bench press. These increases contribute to the regulation of athletic function and thus lead to enhanced physical performance.
# [2] = in vivo; cited from earlier work
# [3] = 20 grams a day for 5 days; five of the eight subjects; cited from earlier work
# [4] = four 5 gram per day; 30 second bouts of maximal isokinetic cycling; cited from earlier work
# [5] = cited from earlier work
# [6] = cited from earlier work; remark: listed apart in the source
molecule,measurement,setting,value
Tricreatine orotate,increase in 1 repetition maximum bench press,[1],20 pound
same,increase in initial 70 percent maximum bench press,[1],5 repetition
same,weight gain,[1],6 pound
"O=C(O)c1cc(=O)[nH]c(=O)[nH]1 [orotic acid, 1,2,3,6-Tetrahydro-2,6-dioxo-4-pyrimidecarboxylic acid]",growth and functional maturation of animals,[2],significant acceleration
CN(CC(=O)O)C(=N)N [creatine],muscle total creatine concentration and phosphocreatine resynthesis,[3],substantially increased
same,peak power output and mean power output,[4],significantly increased
CN(CC(=O)O)C(=N)N.O [creatine monohydrate],rise in plasma creatine concentration,[5]; 1 gram dose,only a modest rise
same,time of mean peak plasma creatine,[5]; 5 gram dose,1 h
same,total creatine content of the quadriceps,[6]; 5 grams four to six times a day for 2 or more days,significant increase
same,creatine uptake,"[6]; first two days of supplementation, six 5 gram doses",32%
same,creatine taken up measured as phosphocreatine (PCr),[6]; in vivo,≥ 20%
